The text below walks through data of PubChem BioAssay (NCI).

The structures appear in SMILES notation.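 1) Cells in 96-well plates. 2) Compound, 48 h, 5 concentrations. 3) Linear interpolation between surrounding doses. 4) Unreached endpoint = highest concentration. The concentration for 50% growth inhibition is given as GI50. TGI is the concentration that stops growth completely.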

Among the test systems are A549 NSCLC; EKVX NSCLC; HCT-116 colon; K-562 leukemia; SF-295 CNS; A498 renal; NCI-H460 lung; SK-OV-3 ovarian.
Holding throughout (test): growth of human tumour cells (NCI), 48 h

As for `O=c1[nH]c(-c2ccccc2)nc2ccc(Cl)cc12`, the TGI in the experiment with A549 NSCLC, in the experiment with EKVX NSCLC, in the experiment with HCT-116 colon, with K-562 leukemia and in the experiment on SF-295 CNS was more than 100 µM each time.
With `O=C(O)CNS(=O)(=O)c1ccc(NC(=O)c2ccc(F)cc2)cc1`, the TGI in the experiment on A498 renal, in the experiment on A549 NSCLC, with EKVX NSCLC, in the experiment on K-562 leukemia, with NCI-H460 lung and in the experiment with SF-295 CNS was more than 100 µM each time. This compound also had a TGI with SK-OV-3 ovarian of more than 100 µM.
As for `O=C1O[C@H](C(Cl)(Cl)Cl)N2CCCC12` (some centres not stated), the TGI in the experiment on A498 renal, in the experiment with A549 NSCLC, in the experiment with EKVX NSCLC, in the experiment with K-562 leukemia, with NCI-H460 lung and with SF-295 CNS was more than 100 µM each time. Besides, the TGI in the experiment on SK-OV-3 ovarian was more than 100 µM.
On to `Cn1ccnc1C(c1nccn1C)C(C)(C)[N+](=O)[O-]`, for which the TGI in the experiment on A498 renal, in the experiment on A549 NSCLC, with EKVX NSCLC, in the experiment with HCT-116 colon, in the experiment on K-562 leukemia and with NCI-H460 lung was more than 100 µM each time. The TGI with SF-295 CNS and with SK-OV-3 ovarian was more than 100 µM each time.
Consider `CCOCC(=O)N[C@H]1CCc2cc(OC)c(OC)c(OC)c2-c2ccc(SC)c(=O)cc21`, for which the TGI with A498 renal is 1.49 µM; in the experiment with A549 NSCLC, more than 100 µM; in the experiment on EKVX NSCLC it was more than 100 µM; in the experiment with HCT-116 colon it was 2.39 µM; in the experiment with K-562 leukemia it was 12.5 µM; in the experiment on NCI-H460 lung, 0.398 µM. The TGI in the experiment with SF-295 CNS came to 0.253 µM; in the experiment with SK-OV-3 ovarian it was 0.398 µM.
On to `C=CCC12CCC(=O)C=C1CCC1(C2)OCCO1` (configuration not stated), for which the TGI with A498 renal, in the experiment on A549 NSCLC, with EKVX NSCLC, in the experiment with HCT-116 colon, with K-562 leukemia and in the experiment on NCI-H460 lung was more than 100 µM throughout. For the same compound, the TGI with SK-OV-3 ovarian was more than 100 µM.
Turning to `NC1CCCCC1N.O=C([O-])P(=O)([O-])[O-].[Na+].[Pt+4]` (configuration not stated), the GI50 in the experiment with A498 renal was more than 100 µM; in the experiment with A549 NSCLC, more than 100 µM; in the experiment on EKVX NSCLC, more than 100 µM; in the experiment with HCT-116 colon, 47.6 µM; in the experiment on K-562 leukemia, more than 100 µM; with NCI-H460 lung, 55.5 µM. For the same compound, the GI50 in the experiment with SF-295 CNS and in the experiment with SK-OV-3 ovarian was more than 100 µM in each case. The TGI in the experiment with A498 renal, in the experiment on A549 NSCLC, with EKVX NSCLC, in the experiment with HCT-116 colon, in the experiment on K-562 leukemia and in the experiment with NCI-H460 lung was more than 100 µM in each case. The TGI in the experiment with SF-295 CNS and with SK-OV-3 ovarian was more than 100 µM each time.
Regarding `COc1ccccc1/C=C1\CCC(CNc2ccc(Cl)cc2)C1=O` (configuration not stated), the TGI is 27 µM with A498 renal; 17 µM with A549 NSCLC; 20.2 µM with EKVX NSCLC; 19.1 µM in the experiment on HCT-116 colon; 19 µM in the experiment with K-562 leukemia; 20.9 µM in the experiment on NCI-H460 lung. Besides, the TGI was found to be 15.4 µM with SF-295 CNS and 16.8 µM in the experiment on SK-OV-3 ovarian.
As to `CC1=C(C)CC2(SC1)C(=O)c1ccccc1C2=O`, the TGI in the experiment on A498 renal, with A549 NSCLC, with HCT-116 colon, in the experiment with K-562 leukemia, in the experiment on NCI-H460 lung and in the experiment on SF-295 CNS was more than 100 µM each time. In addition, the TGI with SK-OV-3 ovarian is more than 100 µM.
As for `Cc1ccc(C(=O)O/N=C2/CCCCC2CN(C)C)cc1` (configuration not stated), the TGI in the experiment on A498 renal, in the experiment on A549 NSCLC, with EKVX NSCLC, in the experiment on HCT-116 colon, in the experiment with K-562 leukemia and in the experiment on NCI-H460 lung was more than 100 µM in each case. In addition, the TGI with SF-295 CNS and in the experiment on SK-OV-3 ovarian was more than 100 µM throughout.
For `O=C1CCC2CCc3cccc4oc1c2c34` (configuration not stated), the TGI with A498 renal, with A549 NSCLC, with EKVX NSCLC, in the experiment with HCT-116 colon, in the experiment on K-562 leukemia and in the experiment on NCI-H460 lung was more than 100 µM in each case. The values for the TGI in the experiment with SF-295 CNS and in the experiment with SK-OV-3 ovarian were 84.1 µM and more than 100 µM, respectively.
Turning to `Oc1ccc2occ3c2c1CCC3`, the TGI with A498 renal, in the experiment on A549 NSCLC, in the experiment with EKVX NSCLC, in the experiment on HCT-116 colon, in the experiment with K-562 leukemia and in the experiment on NCI-H460 lung was more than 100 µM each time. The TGI in the experiment with SF-295 CNS and in the experiment on SK-OV-3 ovarian was more than 100 µM each time.
`CN(C)c1ccc(/C=C/C(=O)C(C)(C)C)cc1Br`: the TGI in the experiment with A498 renal is more than 100 µM; in the experiment with A549 NSCLC, more than 100 µM; with EKVX NSCLC, more than 100 µM; with HCT-116 colon it was 38.1 µM; in the experiment on K-562 leukemia, 86.3 µM; in the experiment with NCI-H460 lung, more than 100 µM. For the same compound, the TGI in the experiment with SF-295 CNS and with SK-OV-3 ovarian was more than 100 µM throughout.
Take `O=S(=O)([O-])[O-].[Cl-].[NH2-].[NH2-].[NH2-].[NH2-].[Ru+3].c1ccc(-c2cccnc2)cc1`: the GI50 in the experiment with A498 renal, with A549 NSCLC, with EKVX NSCLC, with HCT-116 colon, in the experiment with K-562 leukemia and with NCI-H460 lung was more than 100 µM throughout. Moreover, the GI50 with SF-295 CNS and in the experiment on SK-OV-3 ovarian was more than 100 µM throughout. In addition, the TGI in the experiment on A498 renal, in the experiment on A549 NSCLC, in the experiment with EKVX NSCLC, with HCT-116 colon, with K-562 leukemia and with NCI-H460 lung was more than 100 µM each time. In addition, the TGI in the experiment with SF-295 CNS and in the experiment on SK-OV-3 ovarian was more than 100 µM each time.
Turning to `COc1cc(N=Nc2ccccc2)cc(/C=N\[N-]C(N)=S)c1[O-].COc1cc(N=Nc2ccccc2)cc(/C=N\[N-]C(N)=S)c1[O-].[Fe+4]`, the GI50 is 46.4 µM with A549 NSCLC; more than 100 µM in the experiment with EKVX NSCLC; 19.5 µM with HCT-116 colon; 16.1 µM with K-562 leukemia; more than 100 µM with SK-OV-3 ovarian. The TGI with A549 NSCLC, in the experiment on EKVX NSCLC, in the experiment on HCT-116 colon, in the experiment on K-562 leukemia and in the experiment with SK-OV-3 ovarian was more than 100 µM in each case.
`CCN(CC)c1ccc(N=C2C=CC(=O)c3ncccc32)c(C)c1`: the TGI in the experiment on A549 NSCLC was 26.1 µM; with EKVX NSCLC, 30.4 µM; in the experiment on HCT-116 colon it was 6 µM; in the experiment with K-562 leukemia it was 5.95 µM; with NCI-H460 lung, 21.8 µM; in the experiment with SF-295 CNS, 22.9 µM. This compound also returned a TGI in the experiment on SK-OV-3 ovarian of 34.3 µM.
For the compound `COc1ccc(S(=O)(=O)N/N=C/CN2C(=O)c3ccccc3C2=O)cc1OC`, the TGI in the experiment on A498 renal, in the experiment with A549 NSCLC, in the experiment with EKVX NSCLC, in the experiment with HCT-116 colon, in the experiment on K-562 leukemia and in the experiment on NCI-H460 lung was more than 100 µM throughout. Besides, the TGI in the experiment on SF-295 CNS and with SK-OV-3 ovarian was more than 100 µM throughout.
In the case of `CC(C)COC(=O)N1N=NC2C3OC(CC3=O)C21` (configuration not stated), the TGI in the experiment on A498 renal, in the experiment with EKVX NSCLC, in the experiment with HCT-116 colon, in the experiment with K-562 leukemia, with NCI-H460 lung and in the experiment with SF-295 CNS was more than 100 µM each time. This compound displayed a TGI with SK-OV-3 ovarian of more than 100 µM.
For the compound `OCCN(CCO)c1cccc(N(CCO)CCO)c1`, the TGI in the experiment with A498 renal, in the experiment with A549 NSCLC, in the experiment on EKVX NSCLC, with HCT-116 colon, in the experiment with K-562 leukemia and with NCI-H460 lung was more than 100 µM throughout. Further, the TGI with SF-295 CNS and in the experiment on SK-OV-3 ovarian was more than 100 µM in each case.
`CC(=O)O[C@H]1CC[C@@]2(C)C(CC[C@]3(C)C2CC[C@]2(C)Oc4c(C)cc(O)cc4C[C@@H]23)C1(C)C` (some centres not stated): the TGI in the experiment on A498 renal came out at 26 µM; with A549 NSCLC it was 21.2 µM; with EKVX NSCLC, 46.9 µM; with HCT-116 colon, 18.1 µM; in the experiment on K-562 leukemia it was 29.3 µM; with NCI-H460 lung, 16.5 µM. Also, the TGI in the experiment with SF-295 CNS stood at 5.09 µM; in the experiment on SK-OV-3 ovarian, 22.2 µM.
Turning to `CNS(=O)(=O)NN(C)S(=O)(=O)c1ccc(Cl)cc1`, the TGI in the experiment on A498 renal, with A549 NSCLC, in the experiment on EKVX NSCLC, in the experiment with HCT-116 colon, with K-562 leukemia and in the experiment with SF-295 CNS was more than 100 µM in each case.
Turning to `CCN(CC)CC(=O)/C=C/c1ccc(C)cc1`, the TGI with A498 renal is more than 100 µM; in the experiment with A549 NSCLC, 60.8 µM; in the experiment with HCT-116 colon, 32.4 µM; in the experiment with K-562 leukemia it was more than 100 µM; in the experiment on NCI-H460 lung it was 46 µM; in the experiment on SF-295 CNS, 88.1 µM. The same compound had a TGI in the experiment on SK-OV-3 ovarian of 82.5 µM.
As for `N#CCCN(CCC#N)c1ccc(/C=C2\N=C(COc3ccc(Cl)cc3Cl)OC2=O)cc1`, the TGI with A498 renal, in the experiment with A549 NSCLC, with EKVX NSCLC, with HCT-116 colon, with K-562 leukemia and in the experiment with NCI-H460 lung was more than 100 µM each time. For the same compound, the TGI with SF-295 CNS and with SK-OV-3 ovarian was more than 100 µM in each case.
Regarding `O=c1[nH]c(=O)n(C2CC(O)C(CO)O2)cc1C(OCC(F)(F)F)OCC(F)(F)F` (configuration not stated), the TGI in the experiment on A498 renal, with A549 NSCLC, in the experiment on EKVX NSCLC, in the experiment on K-562 leukemia, in the experiment with NCI-H460 lung and in the experiment on SF-295 CNS was more than 100 µM in each case. Moreover, the TGI with SK-OV-3 ovarian is more than 100 µM.
